Assay results: patent US20250195504A1, “NALTREXAMINE DERIVATIVES BEARING 5-MEMBER HETEROCYCLIC RING SYSTEMS AND OPIOID RECEPTOR MODULATORS” (VIRGINIA COMMONWEALTH UNIVERSITY, priority 2022, published 2025)
Counter-ions that a name gives are not always drawn.

Assays:
h5-HT1b = h5-HT1b (Homo sapiens, UniProt P28222); assay: side effect profiling, h5-HT1b; type: binding; settings: for h5-HT1b binding: at 10 uM
hNOP = hNOP (Homo sapiens, UniProt P41146); assay: side effect profiling, hNOP; type: binding; settings: for hNOP binding: at 10 uM
hα1D = hα1D (Homo sapiens, UniProt P25100); assay: side effect profiling, hα1D; type: binding
Potassium channel hERG = Potassium channel hERG (Homo sapiens, UniProt Q12809); assay: side effect profiling, hERG channel; settings: for hERG channel binding: at 10 uM
h5-HT2b = h5-HT2b (Homo sapiens, UniProt P41595); assay: side effect profiling, h5-HT2b; type: binding; settings: at 10 uM
hNK3 = hNK3 (Homo sapiens, UniProt P29371); assay: side effect profiling, hNK3; type: binding
Na channel = assay: side effect profiling, Na channel; type: binding
DOR = target: T1, DOR (Homo sapiens, UniProt P41143); assay: competitive radioligand binding assay, DOR ([3H]diprenorphine, CHO cell membranes); settings: Tables A, B; read-out: Binding Affinity Ki (nM) ± SEM, DOR
T1 construct: expressed in transfected cells; host or cells: CHO

MOR = MOR (Mus musculus, UniProt P42866); settings: read-out: Binding Affinity Ki (nM) ± SEM, MOR; Tables A, B
Caco-2 permeability = settings: human, Caco-2, pH 7.4
KOR = KOR (Mus musculus, UniProt P33534); assay: competitive radioligand binding assay, KOR ([3H]diprenorphine, CHO cell membranes); set-up: expressed in transfected cells; host or cells: CHO; settings: Tables A, B; read-out: Binding Affinity Ki (nM) ± SEM, KOR

For `O=C(N[C@H]1CCC2(O)C3Cc4ccc(O)c5c4[C@@]2(CCN3CC2CC2)[C@H]1O5)c1ccc[nH]1` (stereo partly drawn) [Example 1 compound 1, 17-Cyclopropylmethyl-3,14β-dihydroxy-4,5α-epoxy-6a-[(2′-pyrrolyl)carboxamido]morphinan hydrochloride], the Ki (h5-HT1b) was 0.482 µM, the h5-HT1b binding (h5-HT1b) was 85% and the Ki (hNOP) was 1.44 µM. It also gave a hNOP binding (hNOP) of 59%, a Ki (hα1D) of 0.771 µM and a hα1D binding (hα1D; at 10 uM) of 84%. The Ki (Potassium channel hERG) was 8.6 µM and the hERG channel binding (Potassium channel hERG) was “Potassium channel hERG (52% at 10 uM),”.
With `O=C(N[C@H]1CC[C@@]2(O)[C@H]3Cc4ccc(O)c5c4[C@@]2(CCN3CC2CC2)[C@H]1O5)c1cccs1` [Example 1 compound 25, 17-Cyclopropylmethyl-3,14β-dihydroxy-4,5α-epoxy-6α-(2′-thienylcarboxamido)morphinan hydrochloride] the h5-HT2b binding (h5-HT2b) was “h5-HT2b (78% at 10 uM)”, the Ki (hNK3) was 3.9 µM and the hNK3 binding (hNK3; at 10 uM) was 56%. It also gave a Ki (hNOP) of 6.4 µM, a hNOP binding (hNOP) of 60% and a Ki (Na channel) of 9.9 µM. For the same compound, the Na channel binding (Na channel; at 10 uM) was 55%.
`O=C(N[C@H]1CC[C@@]2(O)[C@H]3Cc4ccc(O)c5c4[C@@]2(CCN3CC2CC2)[C@H]1O5)c1nccs1` [NTZ, 17-Cyclopropylmethyl-3,14β-dihydroxy-4,5α-epoxy-6α-(2′-thiazolylcarboxamido)morphinan hydrochloride] gave a Ki (DOR) of 41.1 ± 3.58 nM, a Ki (MOR) of 0.25 ± 0.03 nM and an efflux ratio at 1 h, 10 μM (Caco-2 permeability) of 2.5. For the same compound, the Ki (KOR) was 1.3 ± 0.12 nM.
With `O=C(N[C@H]1CC[C@@]2(O)[C@H]3Cc4ccc(O)c5c4[C@@]2(CCN3CC2CC2)[C@H]1O5)c1ccsc1` [Example 1 compound 31, 17-Cyclopropylmethyl-3,14β-dihydroxy-4,5α-epoxy-6α-(3′-thienylcarboxamido)morphinan hydrochloride] the h5-HT1b binding (h5-HT1b) was “h5-HT1b (98% at 10 uM)” and the hERG channel binding (Potassium channel hERG) was “hERG channel (58% at 10 uM)”.
